The text below walks through data of patent publication US20260138988A1, “Spiropyrrolidine Derived Antiviral Agents” (Enanta Pharmaceuticals, Inc., priority 2021, published 2026).

Broadly, the IC50 is the point on the concentration scale where inhibition reaches its midpoint.

The assay concerns the target SARS-CoV-2 3CL-protease (Severe acute respiratory syndrome coronavirus 2, UniProt P0DTD1). Put plainly: SARS-CoV-2 3C-Like (3CL) Protease Fluorescence Assay (FRET). Type of assay: biochemical. Conditions: test compounds 0-10 μM, duplicate.
Where [1] appears, read: SARS-CoV-2 3CL-protease 10 nM, read-out: IC50.

The structures appear in SMILES notation. Like-named read-outs stand apart in the source and are kept apart here.

Consider `CC(C)C[C@@H](C(=O)N1C[C@]2(C[C@H]1C#N)C(=O)Nc1ccccc12)N(C)C(=O)[C@H](C)NC(=O)C1(F)C(F)(F)C1(F)F` [Example 275], for which, under setting [1], the IC50 is less than 100 nM. The same measure, in the same setting: to `CC(C)(C)C[C@H](NC(=O)[C@H](CC1CC1)NS(=O)(=O)c1ccc(F)cc1)C(=O)N1C[C@]2(C[C@H]1C#N)C(=O)Nc1ccccc12` [Example 313] belongs less than 100 nM. As to `COCCOCCC(=O)N[C@@H](C)C(=O)N(C)[C@@H](CC(C)(C)C)C(=O)N1C[C@]2(C[C@H]1C#N)C(=O)Nc1ccccc12` [Example 263], the IC50 under setting [1] is less than 100 nM. Still for that read-out and setting: to `C[C@H](NC(=O)C(F)(F)C(F)(F)F)C(=O)N(C)[C@@H](C)C(=O)N1C[C@]2(C[C@H]1C#N)C(=O)Nc1ccccc12` [Example 207] belongs less than 100 nM. The same measure, in the same setting: with `CC(C)CC(NC(=O)C(F)(F)F)C(=O)N1CC[C@H](c2ccccc2)[C@H]1C(=O)N1C[C@]2(C[C@H]1C#N)C(=O)Nc1ccccc12` (stereo partly drawn) [Example 345] the figure was less than 100 nM; with `C[C@H](NC(=O)c1cc2c(F)cc(F)c(F)c2[nH]1)C(=O)N(C)[C@@H](CC(C)(C)C)C(=O)N1C[C@]2(C[C@H]1C#N)C(=O)Nc1ccccc12` [Example 208], less than 100 nM. Still for that read-out and setting: to `CC(C)(C)C[C@H](NC(=O)[C@H](CC1CC1)NC(=O)c1ccc(C2CCCCC2)cc1)C(=O)N1C[C@]2(C[C@H]1C#N)C(=O)Nc1ccccc12` [Example 303] belongs less than 100 nM; to `CC(C)(C)C[C@H](NC(=O)[C@H](CC1CC1)NC(=O)C1CCCCC1)C(=O)N1C[C@]2(C[C@H]1C#N)C(=O)Nc1ccccc12` [Example 327], less than 100 nM.

For `CC(C)N1C[C@]2(C[C@H]1C(=O)N(C)[C@@H](CC(C)(C)C)C(=O)N1C[C@]3(C[C@H]1C#N)C(=O)Nc1ccccc13)C(=O)Nc1ccccc12` [Example 183], the IC50 under setting [1] lay within 100 to 1000 nM. For the molecule `CCCC(F)(F)C(=O)N[C@@H](C)C(=O)N(CC)[C@@H](CC(C)C)C(=O)N1C[C@]2(C[C@H]1C#N)C(=O)Nc1ccccc12` [Example 369], the IC50 under setting [1] was less than 100 nM. With `C[C@H](NC(=O)OCc1ccccc1)C(=O)N[C@@H](CC(C)(C)C)C(=O)N1C[C@]2(C[C@H]1C#N)C(=O)Nc1ccccc12` [Example 227], the IC50 under setting [1] was less than 100 nM. On the same count and under the same terms, to `CC(C)C[C@@H](C(=O)N1C[C@]2(C[C@H]1C#N)C(=O)Nc1ccccc12)n1cccc(NC(=O)OC(C)(C)C)c1=O` [Example 354] belongs 100 to 1000 nM; to `CC(C)C[C@H](C(=O)N1C[C@]2(C[C@H]1C#N)C(=O)Nc1ccccc12)n1cccc(NC(=O)OC(C)(C)C)c1=O` [Example 360], less than 100 nM; to `CC(C)C[C@@H](C(=O)N1C[C@]2(C[C@H]1C#N)C(=O)Nc1ccccc12)N(C)C(=O)[C@H](C)NC(=O)c1c(F)ccc2ccoc12` [Example 187], less than 100 nM. As for `CC(C)(C)C[C@H](NC(=O)[C@H](CC1CC1)NC(=O)C1CC2(CCC2)C1)C(=O)N1C[C@]2(C[C@H]1C#N)C(=O)Nc1ccccc12` [Example 321], the IC50 under setting [1] was less than 100 nM. The same measure, in the same setting: with `C[C@H](Nc1ccc(F)cc1)C(=O)N[C@@H](CC(C)(C)C)C(=O)N1C[C@]2(C[C@H]1C#N)C(=O)Nc1ccccc12` [Example 336] the figure was 100 to 1000 nM. The same measure, in the same setting: to `CC(C)C[C@@H](C(=O)N1C[C@]2(C[C@H]1C#N)C(=O)Nc1ccccc12)N(C)C(=O)[C@H](C)NC(=O)c1c(F)c(F)c(F)c(F)c1F` [Example 301] belongs less than 100 nM. Regarding `C[C@H](NC(=O)C(F)(F)C(F)(F)F)C(=O)N(C)[C@@H](CC1CC1)C(=O)N1C[C@]2(C[C@H]1C#N)C(=O)N(COP(=O)(O)O)c1ccccc12` [Example 352], the IC50 under setting [1] was less than 100 nM. The same measure, in the same setting: to `CCN(C(=O)[C@H](C)NC(=O)C(F)(F)C(F)(F)F)[C@@H](CC(C)C)C(=O)N1C[C@]2(C[C@H]1C#N)C(=O)Nc1ccccc12` [Example 366] belongs less than 100 nM; to `C[C@H](NC(=O)C(F)(F)C(F)(F)F)C(=O)N(C)[C@@H](Cc1ccccc1)C(=O)N1C[C@]2(C[C@H]1C#N)C(=O)Nc1ccccc12` [Example 268], less than 100 nM. Same read-out and setting: with `CCN(C(=O)[C@H](C)NC(=O)OC(C)C)[C@@H](CC(C)C)C(=O)N1C[C@]2(C[C@H]1C#N)C(=O)Nc1ccccc12` [Example 371] the figure was less than 100 nM. On to `C[C@H](NC(=O)C(F)(F)C(F)(F)F)C(=O)N(C)[C@@H](CC1CC1)C(=O)N1C[C@]2(C[C@H]1C#N)C(=O)Nc1ccc(Cl)cc12` [Example 170], for which, under setting [1], the IC50 was less than 100 nM. As for `C[C@H](NC(=O)C(F)(F)F)C(=O)N(C)[C@@H](Cc1ccccc1)C(=O)N1C[C@]2(C[C@H]1C#N)C(=O)Nc1ccccc12` [Example 267], the IC50 under setting [1] is less than 100 nM.

`C[C@H](NC(=O)C(F)(F)C(F)(F)F)C(=O)N(C)[C@@H](CC1CC1)C(=O)N1C[C@]2(C[C@H]1C#N)C(=O)N(COP(=O)(OC(C)(C)C)OC(C)(C)C)c1ccccc12` [Example 351] registered a 50% inhibitory concentration (IC50) (IC50, SARS-CoV-2 3CL-protease 10 nM) of less than 100 nM.

For `CC(C)(C)C[C@H](NC(=O)[C@H](CC1CC1)NC(=O)C1CCC2(CC1)CC2)C(=O)N1C[C@]2(C[C@H]1C#N)C(=O)Nc1ccccc12` [Example 322], the IC50 under setting [1] was less than 100 nM. In the case of `CC(C)(C)C[C@H](NC(=O)[C@@H](Nc1ccc2ccccc2c1)C1CC1)C(=O)N1C[C@]2(C[C@H]1C#N)C(=O)Nc1ccccc12` [Example 342], the IC50 under setting [1] is less than 100 nM. With `CC(C)(C)C[C@H](NC(=O)[C@H](CC1CC1)NC(=O)c1cc(F)c(F)c(F)c1)C(=O)N1C[C@]2(C[C@H]1C#N)C(=O)Nc1ccccc12` [Example 312], the IC50 under setting [1] was less than 100 nM. Still for that read-out and setting: to `CC(C)C[C@@H](C(=O)N1C[C@]2(C[C@H]1C#N)C(=O)Nc1ccccc12)N(C)C(=O)[C@H](C)NC(=O)C12CC3CC(CC(C3)C1)C2` [Example 298] belongs less than 100 nM; to `CC(C)N1C[C@@H]2CCC[C@@H]2[C@H]1C(=O)N(C)[C@@H](CC(C)(C)C)C(=O)N1C[C@]2(C[C@H]1C#N)C(=O)Nc1ccccc12` [Example 181], less than 100 nM; to `CCN(C(=O)[C@H](C)NC(=O)C12CC3CC(CC(C3)C1)C2)[C@@H](CC(C)C)C(=O)N1C[C@]2(C[C@H]1C#N)C(=O)Nc1ccccc12` [Example 368], less than 100 nM. The same measure, in the same setting: with `C[C@H](NC(=O)c1ccc(C(C)(C)C)cc1)C(=O)N(C)[C@@H](CC(C)(C)C)C(=O)N1C[C@]2(C[C@H]1C#N)C(=O)Nc1ccccc12` [Example 213] the figure was less than 100 nM. On the same count and under the same terms, to `CC(C)N1[C@H](C(F)(F)F)CC[C@H]1C(=O)N(C)[C@@H](CC(C)(C)C)C(=O)N1C[C@]2(C[C@H]1C#N)C(=O)Nc1ccccc12` [Example 236] belongs 100 to 1000 nM; to `CCN(C(=O)[C@H](C)NC(=O)c1ccc(Cl)c(Cl)c1)[C@@H](CC(C)C)C(=O)N1C[C@]2(C[C@H]1C#N)C(=O)Nc1ccccc12` [Example 364], less than 100 nM; to `C[C@H](NC(=O)c1cc(OC(F)(F)F)c2ncccc2c1)C(=O)N(C)[C@@H](CC(C)(C)C)C(=O)N1C[C@]2(C[C@H]1C#N)C(=O)Nc1ccccc12` [Example 210], less than 100 nM.

Consider `CC(C)(C)C[C@H](NC(=O)[C@H](CC1CC1)NS(=O)(=O)c1cnn(-c2ccc(F)cc2)c1)C(=O)N1C[C@]2(C[C@H]1C#N)C(=O)Nc1ccccc12` [Example 314], for which, under setting [1], the half-inhibitory concentration (IC50) fell in the range of 100 to 1000 nM. The same measure, in the same setting: to `CC[C@H](NC(=O)C(F)(F)C(F)(F)F)C(=O)N(C)[C@@H](CC(C)C)C(=O)N1C[C@]2(C[C@H]1C#N)C(=O)Nc1ccccc12` [Example 200] belongs less than 100 nM.
